The values that follow come from BindingDB's records for doi:10.1016/j.bmcl.2010.01.018 (Schering-Plough Research Institute, 2010).

By IC50 is commonly meant the concentration at which inhibition is half-maximal. A high value points to a need for much substance.

The experiment in a line: Inhibition of Aurora 2 kinase.

`COc1c(O)cc2c3c(cc4ccc(O)cc4c13)NC2=O` [aristololactam A IIIa] registered a concentration for half-maximal inhibition (IC50) of 2140 nM.
